Data on 16 compounds can be found in ChEMBL document CHEMBL5113503, “Synthesis and biological evaluation of 4-(4-aminophenyl)-6-methylisoxazolo[3,4-b] pyridin-3-amine covalent inhibitors as potential agents for the treatment of acute myeloid leukemia” (Bioorg Med Chem, 2022).

Series [1] in a line: Cytotoxicity against human K562 cells assessed as cell growth inhibition measured after 72 hrs by CCK8 assay. It is filed as toxicity, cell-based.
The next series deals with HL-60. Nature of the series: Antiproliferative activity against human HL-60 cells harboring wildtype FLT3 assessed as cell growth inhibition measured after 72 hrs by CCK8 assay. The following applies: HL-60, 72 h.
A further series concerns MOLM-13. Nature of the series: Antiproliferative activity against human MOLM-13 cells harboring FLT3-ITD mutant assessed as cell growth inhibition measured after 72 hrs by CCK8 assay. The following applies: MOLM-13, 72 h.
In series [2] the test system is MV4-11. The series is described as follows: Antiproliferative activity against human MV4-11 cells harboring FLT3-ITD mutant assessed as cell growth inhibition measured after 72 hrs by CCK8 assay. The following applies: MV4-11, 72 h.
Another series concerns HepG2. Nature of the series: Antiproliferative activity human HepG2 cells assessed as cell growth inhibition measured after 72 hrs by CCK8 assay. Particulars: HepG2, 72 h.
Series [3] can be described thus: Cytotoxicity against HUVEC cells assessed as cell growth inhibition measured after 72 hrs by CCK8 assay. In kind it is toxicity, cell-based. Particulars: human.
Another series relates to A549. Nature of the series: Antiproliferative activity human A549 cells assessed as cell growth inhibition measured after 72 hrs by CCK8 assay. The following applies: A549, 72 h.
Series [4] has as its system MV4-11. Nature of the series: Induction of apoptosis in human MV4-11 cells assessed as late apoptotic cells at 0.1 uM measured after 48 hrs by Annexin V-FITC/PI double staining based flow cytometric analysis (reference value: 12.03 %). In kind it is functional.
Series [5] deals with MV4-11. Nature of the series: Induction of apoptosis in human MV4-11 cells assessed as necrotic cells at 0.1 uM measured after 48 hrs by Annexin V-FITC/PI double staining based flow cytometric analysis (reference value: 5.67 %). In kind it is functional.
Series [6] concerns MV4-11. The series is described as follows: Induction of apoptosis in human MV4-11 cells assessed as viable cells at 0.1 uM measured after 48 hrs by Annexin V-FITC/PI double staining based flow cytometric analysis (reference value: 80.26 %). It is filed as functional. Particulars: read-out: Activity.
Series [7] concerns MV4-11. Nature of the series: Induction of apoptosis in human MV4-11 cells assessed as early apoptotic cells at 0.1 uM measured after 48 hrs by Annexin V-FITC/PI double staining based flow cytometric analysis (reference value: 2.04 %). In kind it is functional.

Turning to `C=CC(=O)Nc1ccc(C(=O)Nc2ccc(-c3cc(C)nc4noc(N)c34)cc2)cc1C`, the values for the IC50 at 72 h in series [1] and in [3] were 2.77 µM and 3.23 µM, respectively. The IC50 in the series with HL-60 is 0.448 µM; in the series on MOLM-13 it was > 10 µM; with MV4-11 [2], 3.33 µM; in the series on HepG2 it was 2.27 µM; in the series with A549, > 10 µM.
In the case of `C=CC(=O)Nc1ccc(C(=O)Nc2ccc(-c3cc(C)nc4noc(N)c34)cc2)cc1OC`, the IC50 at 72 h in [1] and in series [3] was > 10 µM in each case. Further, the IC50 in the series with HL-60 is > 10 µM; in the series with MOLM-13, > 10 µM; with MV4-11 [2], 4.79 µM; in the series on HepG2, > 10 µM; in the series on A549, > 10 µM.
For `C=CC(=O)Nc1ccc(C(=O)Nc2ccc(-c3cc(C)nc4noc(N)c34)cc2)cc1`, the IC50 at 72 h in [1] and in series [3] was > 10 µM in each case. For the same compound, the half-inhibitory concentration (IC50) is 4.4 µM with HL-60; 4.78 µM in the series with MOLM-13; 1.59 µM in the series on MV4-11 [2]; > 10 µM in the series with HepG2; > 10 µM in the series on A549.
`Cc1cc(-c2ccc(NC(=O)Nc3ccc(Cl)c(C(F)(F)F)c3)cc2)c2c(N)onc2n1`: the IC50 at 72 h is 1.73 µM in [1] and > 10 µM in [3]. For the same compound, the IC50 in the series on HL-60 was > 10 µM; with MOLM-13, 0.0046 µM; in the series on MV4-11 [2] it was 0.00089 µM; in the series on HepG2, > 10 µM; in the series on A549, 7.31 µM.
Take `C=CC(=O)Nc1ccc(C(=O)Nc2ccc(-c3cc(C)nc4noc(N)c34)cc2)cc1Cl`: the IC50 at 72 h in [1] was determined as 7.52 µM; in [3], 2.65 µM. Besides, the IC50 in the series on HL-60 came out at 0.307 µM; in the series on MOLM-13, 3.76 µM; in the series with MV4-11 [2], 0.675 µM; in the series on HepG2, 2.61 µM; in the series on A549, 5.54 µM.
Consider `C=CC(=O)N1CCC(C(=O)Nc2ccc(-c3cc(C)nc4noc(N)c34)cc2)CC1`, for which the 50% inhibitory concentration (IC50) at 72 h in series [1] and in [3] was > 10 µM in each case. The 50% inhibitory concentration (IC50) with HL-60, in the series with MOLM-13, in the series on MV4-11 [2], with HepG2 and with A549 was > 10 µM each time.
As for `C=CC(=O)Nc1ccc(CCC(=O)Nc2ccc(-c3cc(C)nc4noc(N)c34)cc2)cc1`, the IC50 at 72 h in series [1] and in series [3] was > 10 µM throughout. For the same compound, the IC50 in the series with HL-60 is > 10 µM; with MOLM-13, 7.42 µM; in the series on MV4-11 [2], 1.34 µM; in the series with HepG2, > 10 µM; with A549 it was > 10 µM.
For `C=CS(=O)(=O)Nc1ccc(C(=O)Nc2ccc(-c3cc(C)nc4noc(N)c34)cc2)cc1`, the IC50 at 72 h in series [1] and in [3] was > 10 µM in each case. Besides, the IC50 is > 10 µM in the series on HL-60; > 10 µM in the series on MOLM-13; 2.55 µM in the series with MV4-11 [2]; > 10 µM with HepG2; > 10 µM in the series with A549.
Consider `C=CC(=O)Nc1cccc(C(=O)Nc2ccc(-c3cc(C)nc4noc(N)c34)cc2)c1`, for which the IC50 at 72 h in series [1] and in series [3] was > 10 µM in each case. For the same compound, the IC50 with HL-60 was 3.95 µM; in the series with MOLM-13, 0.703 µM; with MV4-11 [2], 0.348 µM; in the series on HepG2 it was 7.62 µM; in the series with A549 it was > 10 µM.
Consider `C=CC(=O)Nc1ccc(CC(=O)Nc2ccc(-c3cc(C)nc4noc(N)c34)cc2)cc1`, for which the half-maximal inhibitory concentration (IC50) at 72 h in [1] and in [3] was > 10 µM each time. Further, the IC50 is 8.53 µM in the series with HL-60; 6.23 µM in the series on MOLM-13; 2.17 µM in the series on MV4-11 [2]; > 10 µM with HepG2; > 10 µM in the series on A549.
Turning to `C=CC(=O)Nc1cccc(CC(=O)Nc2ccc(-c3cc(C)nc4noc(N)c34)cc2)c1`, the IC50 at 72 h in series [1] and in [3] was > 10 µM each time. Moreover, the half-maximal inhibitory concentration (IC50) was 7.39 µM in the series with HL-60; 2.52 µM in the series on MOLM-13; 1.26 µM in the series with MV4-11 [2]; > 10 µM in the series on HepG2; > 10 µM in the series with A549.
Turning to `C=CC(=O)Nc1ccc(C(=O)Nc2ccc(-c3cc(C)nc4noc(N)c34)cc2)cc1F`, the IC50 at 72 h in [1] and in series [3] was > 10 µM throughout. Besides, the IC50 in the series with HL-60, in the series on MOLM-13, in the series with MV4-11 [2], in the series on HepG2 and in the series with A549 was > 10 µM each time.
As for `C=CC(=O)Nc1ccc(C(=O)Nc2ccc(-c3cc(C)nc4noc(N)c34)cc2)c(C(F)(F)F)c1`, the IC50 at 72 h in [1] and in series [3] was > 10 µM throughout. Also, the IC50 with HL-60 is 3.68 µM; in the series with MOLM-13, 6.9 µM; in the series on MV4-11 [2] it was 9.18 µM; in the series on HepG2 it was > 10 µM; in the series on A549 it was > 10 µM.
For the compound `C=CC(=O)Nc1cccc(NC(=O)Nc2ccc(-c3cc(C)nc4noc(N)c34)cc2)c1`, the IC50 at 72 h in [1] and in series [3] was > 10 µM throughout. The half-maximal inhibitory concentration (IC50) is > 10 µM in the series on HL-60; 2.27 µM in the series on MOLM-13; 1.04 µM in the series with MV4-11 [2]; > 10 µM with HepG2; > 10 µM in the series with A549.
In the case of `Cc1ccc(F)c(NC(=O)Nc2ccc(-c3cccc4[nH]nc(N)c34)cc2)c1` [LINIFANIB], the IC50 at 72 h in series [1] turned out to be 6.96 µM; in series [3], 4.92 µM. Besides, the IC50 in the series with HL-60 was 7.88 µM; in the series on MOLM-13, 0.019 µM; in the series with MV4-11 [2] it was 0.0034 µM; in the series with HepG2, 4 µM; with A549, 8.34 µM. Further, the Activity is on record as 50.7% in the series with MV4-11 [4], 15.38% with MV4-11 [5] and 0.55% in the series on MV4-11 [7]. For the same compound, in the series on MV4-11 [6], the viability at 0.1 µM stood at 33.4%.
`C=CC(=O)Nc1ccc(C(=O)Nc2ccc(-c3cc(C)nc4noc(N)c34)cc2)cc1Br`: the concentration for half-maximal inhibition (IC50) at 72 h in series [1] and in [3] was > 10 µM in each case. The IC50 with HL-60 is 0.601 µM; with MOLM-13, 7.35 µM; in the series on MV4-11 [2] it was 1.22 µM; in the series with HepG2 it was 2.68 µM; with A549, > 10 µM.
